Source: patent US20260014264A1, “SPECIFIC TOPOISOMERASE INHIBITOR, USE AS ANTIBODY DRUG CONJUGATE, AND PREPARATION METHOD THEREFOR” (BIOBRICS LIFE SCIENCE (NANTONG) CO., LTD., priority 2022, published 2026)

Test system: human non-small cell lung cancer cell line A549
Test: In vitro cytotoxicity test of released camptothecin analogs (Luminescent Cell Viability Assay)
Format: cell-based
Details: A549, 120 h, read-out: IC50 (A549, nM)
Experimental: Stable transfection of high expression Her2, high expression SK-BR-3 and BT-474 human breast cancer cells, NCI-N87 human gastric cancer cells and human non-small cell lung cancer cell line A549 were selected as the cell lines for in vitro activity detection in this experiment, and the killing dose and effect of different antibody coupled drugs on cells were observed. Preliminary selection of plate density for each cell type: 2×10^3 cells/well, followed by cytotoxicity assay after 16-24 h; Next, the antibody coupled drug prepared in Example 2 was tested with a final concentration set at 5000 nM as the starting concentration, and a series of 10 concentrations (4-10 fold dilution) were designed for 5000-0.006 nM. […] The IC50 was calculated after reading the fluorescence data.
The linkers in the present invention are all cleavable linkers. Therefore, the released camptothecin analogs were first subjected to in vitro cytotoxic activity testing, and the results are shown in the table below.

**Q.** For CC[C@@]1(O)C(=O)OCc2c1cc1n(c2=O)Cc2c-1nc1cc(F)c(NC(=O)CO)c3c1c2CCC3 [Compound A1-FD], which IC50 is on record?
**A.** 69.1 nM

**Q.** With CC[C@@]1(O)C(=O)OCc2c1cc1n(c2=O)Cc2c-1nc1cc(F)c(C)c3c1c2[C@@H](NC(=O)CO)CC3 [Dxd, reference compound] as the compound, how does the IC50 read?
**A.** 45.1 nM

Same assay, conditions: A549 cells, 120 hours, chemiluminescence cell viability, read-out: IC50 (A549)

**Q.** For CC[C@@]1(O)C(=O)OCc2c1cc1n(c2=O)Cc2c-1nc1cc(F)c(NC(=O)C(C)O)c3c1c2CCC3 (stereo partly shown) [Compound A2-FD], which IC50 is on record?
**A.** 0.53 nM

**Q.** How did the IC50 turn out when CC[C@@]1(O)C(=O)OCc2c1cc1n(c2=O)Cc2c-1nc1cc(F)c(NC(=O)C(O)C3CC3)c3c1c2CCC3 (stereo partly shown) [Compound A3-FD] was run?
**A.** 5.5 nM

**Q.** With CC[C@@]1(O)C(=O)OCc2c1cc1n(c2=O)Cc2c-1nc1cc(F)c(NC(=O)C3CC3O)c3c1c2CCC3 (stereo partly shown) [Compound A9-FD] as the compound, how does the IC50 read?
**A.** 25.2 nM

**Q.** How did the IC50 turn out when CC[C@@]1(O)C(=O)OCc2c1cc1n(c2=O)Cc2c-1nc1cc(F)c(NC(=O)C3CC(O)C3)c3c1c2CCC3 (stereo partly shown) [Compound A11-FD] was run?
**A.** 2.1 nM

**Q.** For CC[C@@]1(O)C(=O)OCc2c1cc1n(c2=O)Cc2c-1nc1ccc(NC(=O)CO)c3c1c2CCC3 [Compound A16-FD], which IC50 is on record?
**A.** 79.5 nM
